In patent US4916135A, “N-heteroaryl-4-quinolinamines” (priority 1989, dated 1990):
Structures can show the parent of a compound that is named as a salt. Where two headings read alike, the source gives them in different places.

Columns and labels:
[1] = tested on: 2-phenyl-1,4-benzoquinone-induced writhing; assay: 2-phenyl-1,4-benzoquinone-induced writhing (PQW) test in mice (analgesic activity); assay type: in vivo; settings: for inhibition in vivo at 20 mg/kg: Mus musculus, sc, read-out: PQW Percent inhibition
Procedure: Compounds I of the present invention are useful as analgesic agents due to their ability to alleviate pain in mammals. […] Exptl. Biol. Med., 95, 729 (1957)].
The results of some of the compounds of this invention (expressed in terms of percent inhibition at 20 mg/kg, s.c.) are shown in Table 1 along with that of a prior art compound.

[2] = tested on: Scopolamine Induced Memory Deficit; assay: scopolamine-induced Dark Avoidance Assay; assay type: in vivo; settings: s.c., mice, 24 hours
Procedure: In this assay mice are tested for their ability to remember an unpleasant stimulus for a period of 24 hours. A mouse is placed in a chamber that contains a dark compartment; a strong incandescent light drives it to the dark compartment, where an electric shock is administered through metal plates on the floor. The animal is removed from the testing apparatus and tested again, 24 hours later, for the ability to remember the electric shock.
If scopolamine, an anticholinergic that is known to cause memory impairment, is administered before an animal's initial exposure to the test chamber, the animal re-enters the dark compartment shortly after being placed in the test chamber 24 hours later. This effect of scopolamine is blocked by an active test compound, resulting in a greater interval before re-entry into the dark compartment.
The results for an active compound are expressed as the percent of a group of animals in which the effect of scopolamine is blocked, as manifested by an increased interval between being placed in the test chamber and re-entering the dark compartment.
Test results of scopolamine-induced Dark Avoidance Assay for representative compounds of this invention are presented in Table 2 along with that of a reference compound.

| Compound | inhibition in vivo at 20 mg/kg ([1]; at 20 mg/kg, s.c., mice) [%] | also measured |
| --- | --- | --- |
| CCCN(c1ccnc2cc(Cl)ccc12)n1cccc1C=O [1-[(7-Chloro-4-quinolinyl)propylamino]-1H-pyrrole-2-carboxaldehyde] | 31 | – |
| CCCN(c1ccnc2cc(Cl)ccc12)n1ccc(C=O)c1 [1-[(7-Chloro-4-quinolinyl)propylamino]-1H-pyrrole-3-carboxaldehyde] | 42 | – |
| C#CCn1ccc(=Nn2cccc2)c2ccc(Cl)cc21 [7-Chloro-1-(2-propynyl)-N-(1H-pyrrol-1-yl)-4(1H)-quinolinimine] | 48 | – |
| CCN(CC)Cc1cccn1Nc1ccnc2cc(Cl)ccc12 [7-Chloro-N-(2-diethylaminomethyl-1H-pyrrol-1-yl)-4-quinolinamine] | 55 | – |
| Clc1ccc2c(Nn3cccc3CN3CCCCC3)ccnc2c1 [7-Chloro-N-[2-(1-piperidinyl)methyl-1H-pyrrol-1-yl]-4-quinolinamine] | 35 | – |
| CCCN(c1ccnc2cc(Cl)ccc12)n1cccc1.O=C(O)/C=C\C(=O)O [7-Chloro-N-propyl-N-(1H-pyrrol-1-yl)-4-quinolinamine maleate] | 42 | % of Animals with Scopolamine Induced Memory Deficit Reversal ([2]; 0.31 mg/kg of body weight): 20% |
| c1ccc2c(c1)ccn2Nc1ccnc2ccccc12 [N-(1H-Indol-1-yl)-4-quinolinamine maleate] | 32 | – |
| Cl.c1ccc2c(Nn3cccc3)c3c(nc2c1)CCCC3 [N-(1H-Pyrrol-1-yl)-1,2,3,4-tetrahydro-9-acridinamine hydrochloride] | – | inhibition in vivo at 20 mg/kg [1]: 43%; % of Animals with Scopolamine Induced Memory Deficit Reversal ([2]; 0.63 mg/kg of body weight): 20% |
| Cl.c1ccc2c(Nn3cccc3)ccnc2c1 [N-(1H-Pyrrol-1-yl)-4-quinolinamine hydrochloride] | 26 | % of Animals with Scopolamine Induced Memory Deficit Reversal ([2]; 0.16 mg/kg of body weight): 47% |
| Cl.FC(F)(F)c1ccc2c(Nn3cccc3)ccnc2c1 [N-(1H-Pyrrol-1-yl)-7-trifluoromethyl-4-quinolinamine hydrochloride] | 48 | % of Animals with Scopolamine Induced Memory Deficit Reversal ([2]; 1.25 mg/kg of body weight): 40% |
| Cc1cn(Nc2ccnc3ccccc23)c2ccccc12 [N-(3-Methyl-1H-indol-1-yl)-4-quinolinamine hydrochloride] | 44 | – |
| CCCN(c1c2c(nc3ccccc13)CCCC2)n1cc(C)c2ccccc21 [N-(3-Methyl-1H-indol-1-yl)-N-propyl-1,2,3,4-tetrahydro-9-acridinamine] | 42 | – |
| c1ccc2c(Nn3c4ccccc4c4ccccc43)ccnc2c1 [N-(4-Quinolinyl)-9H-carbazol-9-amine hydrochloride] | 30 | – |
| CCCN(c1ccnc2ccccc12)n1cccc1 [N-Propyl-N-(1H-pyrrol-1-yl)-4-quinolinamine] | 33 | % of Animals with Scopolamine Induced Memory Deficit Reversal ([2]; 0.16 mg/kg of body weight): 33% |
| CCCN(c1ccnc2ccccc12)n1c2ccccc2c2ccccc21 [N-Propyl-N-(4-quinolinyl)-9H-carbazol-9-amine] | 55 | – |
| CNC(=O)Oc1ccc2c(c1)[C@]1(C)CCN(C)[C@@H]1N2C [Physostigmine, reference compound] | – | % of Animals with Scopolamine Induced Memory Deficit Reversal ([2]; 0.31 mg/kg of body weight): 20% |
| Propoxyphene [reference compound] | – | PQW Percent inhibition ([1]; at 3.9 mg/kg, s.c., mice, reference compound): 50% |
